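Protocol summary: plate cells (96-well), add compound at 5 concentrations, incubate 48 h, interpolate endpoints linearly. The concentration for 50% growth inhibition is given as GI50.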 The source made the active and inactive calls. Rule as the data show it: active = GI50 up to about 1.1 µM and inactive = higher.
Columns and labels:
Experiment in all cases: NCI-60 cell line screen, 48 h
NCI/ADR-RES = tested on: NCI/ADR-RES
786-0 = tested on: 786-0
HCT-116 = tested on: HCT-116
SK-MEL-28 = tested on: SK-MEL-28
K562 = tested on: K562
SF-539 = tested on: SF-539
OVCAR-3 = tested on: OVCAR-3
HOP-62 = tested on: HOP-62
Malme-3M = tested on: Malme-3M
OVCAR-5 = tested on: OVCAR-5
UACC-62 = tested on: UACC-62
RPMI-8226 = tested on: RPMI-8226
HT-29 = tested on: HT-29
MDA-MB-435 = tested on: MDA-MB-435
SN12C = tested on: SN12C
MDA-MB-231 = tested on: MDA-MB-231
BT-549 = tested on: BT-549
A498 = tested on: A498
SNB-19 = tested on: SNB-19
NCI-H23 = tested on: NCI-H23

Measured: GI50

COc1ccc(OC)c2cc(Cc3ccc(N(C)C)cc3)c(=O)c(Cc3ccc(N(C)C)cc3)cc12
inactive: NCI/ADR-RES 30.2 µM | 786-0 90.8 µM | HCT-116 > 100 µM | SK-MEL-28 > 100 µM | K562 34.4 µM | SF-539 86.1 µM | OVCAR-3 > 100 µM | HOP-62 58.6 µM | Malme-3M > 100 µM | OVCAR-5 > 100 µM | UACC-62 59.4 µM | RPMI-8226 22.4 µM | HT-29 > 100 µM | MDA-MB-435 > 100 µM | SN12C > 100 µM | MDA-MB-231 74.5 µM | BT-549 > 100 µM | A498 26.4 µM | SNB-19 75.5 µM | NCI-H23 > 100 µM

From ChEMBL document CHEMBL1201862, “PubChem BioAssay data set” (2004)
